US11178871B2, “Herbicidal pyrimidine compounds” (BASF SE, priority 2016, dated 2021)

Legend:
Type in all cases: in vivo
Echinocloa crus-galli [1] = test: greenhouse test, post-emergence treatment, ECHCG; conditions: post-emergence
From the text: (§1) The culture containers used were plastic flowerpots containing loamy sand with approximately 3.0% of humus as the substrate. The seeds of the test plants were sown separately for each species.
(§2) For the post-emergence treatment, the test plants were first grown to a height of 3 to 15 cm, depending on the plant habit, and only then treated with the active ingredients which had been suspended or emulsified in water. For this purpose, the test plants were either sown directly and grown in the same containers, or they were first grown separately as seedlings and transplanted into the test containers a few days prior to treatment.
(§3) Depending on the species, the plants were kept at 10-25° C. or 20-35° C., respectively.
(§4) The test period extended over 2 to 4 weeks. During this time, the plants were tended, and their response to the individual treatments was evaluated.
(§5) Evaluation was carried out using a scale from 0 to 100. 100 means no emergence of the plants, or complete destruction of at least the aerial moieties, and 0 means no damage, or normal course of growth. A good herbicidal activity is given at values of at least 70 and a very good herbicidal activity is given at values of at least 85.
(§6) The plants used in the greenhouse experiments were of the following species: […]

Alopecurus myosuroides = test: greenhouse test, post-emergence treatment, ALOMY; conditions: post-emergence
From the text: as §1, §2, §3, §4, §5, §6

Apera spica-venti = test: greenhouse test, pre-emergence treatment, APESV
From the text: as §1
(§7) For the pre-emergence treatment, the active ingredients, which had been suspended or emulsified in water, were applied directly after sowing by means of finely distributing nozzles. The containers were irrigated gently to promote germination and growth and subsequently covered with transparent plastic hoods until the plants had rooted. This cover caused uniform germination of the test plants, unless this had been impaired by the active ingredients.
as §3, §4, §5, §6

Echinocloa crus-galli [2] = test: greenhouse test, pre-emergence treatment, ECHCG
From the text: as §1, §7, §3, §4, §5, §6

Avena fatua = test: greenhouse test, post-emergence treatment, AVEFA
From the text: as §1, §2, §3, §4, §5, §6

CCc1ncc(-c2ccccc2Br)c(-c2ccoc2)n1 [Ex. 63]
herbicidal activity (Echinocloa crus-galli [1]; 1000 g/ha): very good (a very good herbicidal activity is given at values of at least 85)

Cc1nc(-c2nc(C3CC3)ncc2-c2ccccc2Br)co1 [Ex. 288]
herbicidal activity (Alopecurus myosuroides; 2000 g/ha): very good (a very good herbicidal activity is given at values of at least 85)

CC(=O)OC(c1nc(C2CC2)ncc1-c1ccccc1Cl)C(C)(C)OC(C)=O (centres unmarked) [Ex. 274]
herbicidal activity (Alopecurus myosuroides; 1000 g/ha): very good (a very good herbicidal activity is given at values of at least 85)
herbicidal activity (Echinocloa crus-galli [1]; 1000 g/ha): very good (a very good herbicidal activity is given at values of at least 85)
herbicidal activity (Apera spica-venti; 1000 g/ha): very good (a very good herbicidal activity is given at values of at least 85)
herbicidal activity (Echinocloa crus-galli [2]; 1000 g/ha): very good (a very good herbicidal activity is given at values of at least 85)

Clc1ccccc1-c1cnc(C2CC2)nc1CCc1ccco1 [Ex. 102]
herbicidal activity (Echinocloa crus-galli [1]; 2000 g/ha): very good (a very good herbicidal activity is given at values of at least 85)

Cc1ccc(-c2nc(C3CC3)ncc2-c2ccccc2Cl)o1 [Ex. 26]
herbicidal activity (Alopecurus myosuroides; 2000 g/ha): very good (a very good herbicidal activity is given at values of at least 85)
herbicidal activity (Echinocloa crus-galli [1]; 2000 g/ha): very good (a very good herbicidal activity is given at values of at least 85)
herbicidal activity (Apera spica-venti; 2000 g/ha): very good (a very good herbicidal activity is given at values of at least 85)
herbicidal activity (Echinocloa crus-galli [2]; 2000 g/ha): very good (a very good herbicidal activity is given at values of at least 85)

OC1(Cc2nc(C3CC3)ncc2-c2ccccc2Cl)COC1 [Ex. 73]
herbicidal activity (Alopecurus myosuroides; 2000 g/ha): good (A good herbicidal activity is given at values of at least 70)

OC(Cc1nc(C2CC2)ncc1-c1ccccc1Cl)c1nc(Cl)ccc1Cl (centres unmarked) [Ex. 256]
herbicidal activity (Echinocloa crus-galli [1]; 2000 g/ha): very good (a very good herbicidal activity is given at values of at least 85)
herbicidal activity (Apera spica-venti; 2000 g/ha): very good (a very good herbicidal activity is given at values of at least 85)
herbicidal activity (Echinocloa crus-galli [2]; 2000 g/ha): very good (a very good herbicidal activity is given at values of at least 85)

N#Cc1csc(-c2nc(C3CC3)ncc2-c2ccccc2Cl)c1 [Ex. 126]
herbicidal activity (Echinocloa crus-galli [1]; 2000 g/ha): very good (a very good herbicidal activity is given at values of at least 85)

Fc1ccc(-c2cnc(C3CC3)nc2-c2cc3cc(Cl)ccc3o2)c(Cl)c1 [Ex. 44]
herbicidal activity (Avena fatua; 1000 g/ha): very good (a very good herbicidal activity is given at values of at least 85)
herbicidal activity (Echinocloa crus-galli [1]; 1000 g/ha): very good (a very good herbicidal activity is given at values of at least 85)

CC(O)c1nc(C2CC2)ncc1-c1ccc(F)cc1Cl (centres unmarked) [Ex. 112]
herbicidal activity (Echinocloa crus-galli [1]; 1000 g/ha): good (A good herbicidal activity is given at values of at least 70)

Cc1ccoc1-c1nc(C2CC2)ncc1-c1ccccc1I [Ex. 77]
herbicidal activity (Alopecurus myosuroides; 1000 g/ha): very good (a very good herbicidal activity is given at values of at least 85)
herbicidal activity (Avena fatua; 1000 g/ha): very good (a very good herbicidal activity is given at values of at least 85)

Cc1ccc(-c2nc(C3CC3)ncc2-c2cc(F)ccc2C)o1 [Ex. 110]
herbicidal activity (Echinocloa crus-galli [1]; 1000 g/ha): good (A good herbicidal activity is given at values of at least 70)

Clc1ccccc1-c1cnc(C2CC2)nc1CC1=CCOCC1 [Ex. 104]
herbicidal activity (Alopecurus myosuroides; 2000 g/ha): very good (a very good herbicidal activity is given at values of at least 85)
herbicidal activity (Echinocloa crus-galli [1]; 2000 g/ha): good (A good herbicidal activity is given at values of at least 70)
herbicidal activity (Apera spica-venti; 2000 g/ha): very good (a very good herbicidal activity is given at values of at least 85)
herbicidal activity (Echinocloa crus-galli [2]; 2000 g/ha): good (A good herbicidal activity is given at values of at least 70)

Cc1ncoc1-c1nc(C2CC2)ncc1-c1ccc(C(F)(F)F)cc1Cl [Ex. 264]
herbicidal activity (Alopecurus myosuroides; 500 g/ha): very good (a very good herbicidal activity is given at values of at least 85)
herbicidal activity (Avena fatua; 500 g/ha): very good (a very good herbicidal activity is given at values of at least 85)

Clc1ccccc1-c1cnc(C2CC2)nc1-c1cocn1 [Ex. 215]
herbicidal activity (Alopecurus myosuroides; 2000 g/ha): very good (a very good herbicidal activity is given at values of at least 85)
herbicidal activity (Apera spica-venti; 2000 g/ha): very good (a very good herbicidal activity is given at values of at least 85)

FC(F)(F)c1ccc(-c2nc(C3CC3)ncc2-c2ccccc2Cl)s1 [Ex. 216]
herbicidal activity (Alopecurus myosuroides; 1000 g/ha): very good (a very good herbicidal activity is given at values of at least 85)
herbicidal activity (Echinocloa crus-galli [1]; 1000 g/ha): very good (a very good herbicidal activity is given at values of at least 85)
herbicidal activity (Apera spica-venti; 1000 g/ha): very good (a very good herbicidal activity is given at values of at least 85)

Cc1ccc(-c2nc(C3CC3)ncc2-c2cc(F)c(F)cc2Cl)o1 [Ex. 79]
herbicidal activity (Alopecurus myosuroides; 1000 g/ha): very good (a very good herbicidal activity is given at values of at least 85)
herbicidal activity (Avena fatua; 1000 g/ha): very good (a very good herbicidal activity is given at values of at least 85)
